From a flash point compilation (Sun et al. 2020)

Row | Structure (SMILES) | flash point [°C]
1 | CCCCC(CC)COP(=O)(O)OCC(CC)CCCC (centres undefined) [bis(2-ethylhexyl) hydrogen phosphate] | 196.00
2 | Cl.Nc1ccccc1 [aniline;hydrochloride] | 193.00
3 | Cc1cccc(C)c1 [1,3-xylene] | 29.00
4 | O=CC1CC=CCC1 (centres undefined) [cyclohex-3-ene-1-carbaldehyde] | 57.00
5 | Cc1c(N=C=O)cccc1N=C=O [1,3-diisocyanato-2-methylbenzene] | 132.00
6 | CC(Oc1ccc(Cl)cc1Cl)C(=O)O (centres undefined) [2-(2,4-dichlorophenoxy)propanoic acid] | 204.00
7 | CCCCCCCCCc1ccc(O)c(CCCCCCCCC)c1 [2,4-di(nonyl)phenol] | 127.00
8 | C=Cc1cccc(C)c1 [1-ethenyl-3-methylbenzene] | 60.00
9 | CCCCCCCOC(=O)c1ccccc1C(=O)OCCCCCCC [diheptyl benzene-1,2-dicarboxylate] | 224.00
10 | O=C1CCCN1 [pyrrolidin-2-one] | 129.00
11 | CCCCCCCCCCCc1ccccc1 [undecylbenzene] | 141.00
12 | CCOC(=O)CBr [ethyl 2-bromoacetate] | 48.00
13 | N=C(N)c1ccc(OCCCCCOc2ccc(C(=N)N)cc2)cc1 [4-[5-(4-carbamimidoylphenoxy)pentoxy]benzenecarboximidamide] | 103.00
14 | C=C(C)CC(C)(C)C [2,4,4-trimethylpent-1-ene] | 2.00
15 | Nc1ccccc1C(=O)O [2-aminobenzoic acid] | 171.00
16 | CC(C)Cl [2-chloropropane] | -32.00
17 | FC(F)=C(F)Cl [1-chloro-1,2,2-trifluoroethene] | -27.00
18 | CCCCOCCOP(=O)(OCCOCCCC)OCCOCCCC [tris(2-butoxyethyl) phosphate] | 224.00
19 | CCOC(=O)CC(C)O (centres undefined) [ethyl 3-hydroxybutanoate] | 64.00
20 | CC1=Nc2ccc3ccccc3c2C1(C)C [1,1,2-trimethylbenzo[e]indole] | 182.00
21 | O=[N+]([O-])c1cccc(I)c1 [1-iodo-3-nitrobenzene] | 72.00
22 | Cc1cc(C)cc(N)c1.Cc1ccc(C)c(N)c1.Cc1ccc(N)c(C)c1.Cc1ccc(N)cc1C.Cc1cccc(C)c1N.Cc1cccc(N)c1C | 97.00
23 | CCCCCCCCOC(=O)CCCCCCCC1OC1CCCCCCCC (centres undefined) [octyl 8-(3-octyloxiran-2-yl)octanoate] | 217.00
24 | CCCCC(CC)COC(C)=O (centres undefined) [2-ethylhexyl acetate] | 88.00
25 | CSC [methylsulfanylmethane] | -38.00

Row | Structure (SMILES) | flash point [°C]
26 | CN1CCCC1=O [1-methylpyrrolidin-2-one] | 96.00
27 | Cc1cccc(Br)c1 [1-bromo-3-methylbenzene] | 60.00
28 | C1CC2OC2CC1C1CO1 (centres undefined) [3-(oxiran-2-yl)-7-oxabicyclo[4.1.0]heptane] | 110.00
29 | COC(C)(C)C [2-methoxy-2-methylpropane] | -26.00
30 | C=CCN(CC=C)C(=O)CCl [2-chloro-N,N-bis(prop-2-enyl)acetamide] | 186.00
31 | CCCCN(C)N=O [N-butyl-N-methylnitrous amide] | 32.00
32 | O=C(Cl)c1ccccc1F [2-fluorobenzoyl chloride] | 82.00
33 | Nc1cccnc1 [pyridin-3-amine] | 190.00
34 | CC(=O)CC(C)=O [pentane-2,4-dione] | 34.00
35 | CC(C)OC(C)C(Cl)Cl (centres undefined) [1,1-dichloro-2-propan-2-yloxypropane] | 85.00
36 | C=CC(C)(CCC=C(C)C)OC(C)=O (centres undefined) [3,7-dimethylocta-1,6-dien-3-yl acetate] | 94.00
37 | OCCN1CC1 [2-(aziridin-1-yl)ethanol] | 67.00
38 | C1=CC2C=CC1C2 [bicyclo[2.2.1]hepta-2,5-diene] | -21.00
39 | CCN(CC)N=O [N,N-diethylnitrous amide] | 63.00
40 | O=C(O)CCl [2-chloroacetic acid] | 150.00
41 | CCCCC(=O)OC [methyl pentanoate] | 22.00
42 | C=CCOC(=O)c1ccccc1C(=O)OCC=C [bis(prop-2-enyl) benzene-1,2-dicarboxylate] | 110.00
43 | CC(C)CCCCCOC(=O)CCCCC(=O)OCCCCCC(C)C [bis(6-methylheptyl) hexanedioate] | 210.00
44 | CC(N)CN (centres undefined) [propane-1,2-diamine] | 33.00
45 | COC(=O)CCC(=O)OC [dimethyl butanedioate] | 85.00
46 | CCCCCC(C)=O [heptan-2-one] | 39.00
47 | N#CCCCl [3-chloropropanenitrile] | 76.00
48 | NCCO [2-aminoethanol] | 93.00
49 | CCC(CC)OC(C)=O [pentan-3-yl acetate] | 33.00
50 | CC(C)CCCCCCCOP(=S)([S-])OCCCCCCCC(C)C.CC(C)CCCCCCCOP(=S)([S-])OCCCCCCCC(C)C.[Zn+2] | 280.00

Row | Structure (SMILES) | flash point [°C]
51 | O=C(Cl)c1cccc(C(=O)Cl)c1 [benzene-1,3-dicarbonyl chloride] | 180.00
52 | CCCCOCCOC(C)=O [2-butoxyethyl acetate] | 71.00
53 | CCOC(=O)C#Cc1ccccc1 [ethyl 3-phenylprop-2-ynoate] | 113.00
54 | CC1(C)CC(N)CC(C)(CN)C1 (centres undefined) [3-(aminomethyl)-3,5,5-trimethylcyclohexan-1-amine] | 110.00
55 | CC(=O)OC1CCCCC1 [cyclohexyl acetate] | 58.00
56 | CCOC(C)(C)C [2-ethoxy-2-methylpropane] | -19.00
57 | CCOP(=S)(OCC)SCSCC | 160.00
58 | CCCCOC(=O)[C@@H](C)Oc1ccc(Oc2ccc(C#N)cc2F)cc1 [butyl (2R)-2-[4-(4-cyano-2-fluorophenoxy)phenoxy]propanoate] | 122.00
59 | CN(C)CCCC1(c2ccccc2)C(=O)N(N(C)Cc2ccccc2F)c2ccccc21 (centres undefined) | 193.00
60 | Oc1cccc2ccccc12 [naphthalen-1-ol] | 153.00
61 | Cc1ccccc1F [1-fluoro-2-methylbenzene] | 13.00
62 | CCC1CCC(CCC(=O)O)C1 (centres undefined) [3-(3-ethylcyclopentyl)propanoic acid] | 101.00
63 | O=C(O)C(Cl)Br (centres undefined) [2-bromo-2-chloroacetic acid] | 110.00
64 | CCN(CC)CCO [2-(diethylamino)ethanol] | 60.00
65 | C1OCOCO1 [1,3,5-trioxane] | 45.00
66 | Oc1ccc2ccccc2c1 [naphthalen-2-ol] | 153.00
67 | CCCCC(CC)COP(=O)(OCC(CC)CCCC)OCC(CC)CCCC (centres undefined) [tris(2-ethylhexyl) phosphate] | 152.00
68 | Oc1ccccc1-c1ccccc1 [2-phenylphenol] | 124.00
69 | C=C(Cl)CCl [2,3-dichloroprop-1-ene] | 10.00
70 | CCN1CCOCC1 [4-ethylmorpholine] | 28.00
71 | ClC(Cl)(Cl)C1CO1 (centres undefined) [2-(trichloromethyl)oxirane] | 67.00
72 | CC(O)COCC(C)O (centres undefined) [1-(2-hydroxypropoxy)propan-2-ol] | 138.00
73 | CCCCCCOCCOCCO [2-(2-hexoxyethoxy)ethanol] | 141.00
74 | C1CCNC1 [pyrrolidine] | 3.00
75 | ClCCCCCCCl [1,6-dichlorohexane] | 74.00

Row | Structure (SMILES) | flash point [°C]
76 | ClC=C(Cl)CCl [1,2,3-trichloroprop-1-ene] | 85.00
77 | Cc1cccc2cccnc12 [8-methylquinoline] | 105.00
78 | COS(=O)(=O)C(F)(F)F [methyl trifluoromethanesulfonate] | 38.00
79 | C=C1CCC2CC1C2(C)C (centres undefined) [6,6-dimethyl-2-methylidenebicyclo[3.1.1]heptane] | 31.00
80 | C=CC#N [prop-2-enenitrile] | 0.00
81 | O=C1CCCCCN1 [azepan-2-one] | 125.00
82 | C=CC(=O)OCC(CC)CC [2-ethylbutyl prop-2-enoate] | 52.00
83 | Nc1cccc(N)c1 [benzene-1,3-diamine] | 138.00
84 | CC(Cl)C(=O)O (centres undefined) [2-chloropropanoic acid] | 107.00
85 | CC1(N)CCC(C(C)(C)N)CC1 (centres undefined) [4-(2-aminopropan-2-yl)-1-methylcyclohexan-1-amine] | 93.00
86 | O=[N+]([O-])c1ccc(Cl)c(Cl)c1 [1,2-dichloro-4-nitrobenzene] | 124.00
87 | CC(C)N(C(=O)SCC(Cl)=C(Cl)Cl)C(C)C | 90.00
88 | Cc1cc(C)cc(O)c1 [3,5-dimethylphenol] | 80.00
89 | Cc1cc(C)nc(C)c1 [2,4,6-trimethylpyridine] | 58.00
90 | c1c[nH]cn1 [1H-imidazole] | 145.00
91 | O=[N+]([O-])C(Br)(CO)CO [2-bromo-2-nitropropane-1,3-diol] | 167.00
92 | CCCCCCCCCCCCCCCCN [hexadecan-1-amine] | 141.00
93 | CC[Si](Cl)(Cl)CC [dichloro(diethyl)silane] | 24.00
94 | CCCC [butane] | -60.00
95 | CN(C)Cc1ccccc1 [N,N-dimethyl-1-phenylmethanamine] | 57.00
96 | CC(C)(Cl)[N+](=O)[O-] [2-chloro-2-nitropropane] | 57.00
97 | CCOC(N)=O [ethyl carbamate] | 92.00
98 | CCCCCCCCCCCC(=O)O [dodecanoic acid] | 113.00
99 | ClC[Si](Cl)(Cl)Cl [trichloro(chloromethyl)silane] | 69.00
